What was measured:
HEK-293 cells = assay: HEK-293 cytotoxicity detection (CellTiter-Glo); format: cell-based; settings: Homo sapiens; HEK-293 cells, 72 h incubation, CellTiter-Glo luminescence, IC50 of cell proliferation inhibition; read-out: HEK293
Procedure: (§1) HEK-293 cells were treated with compounds diluted in 0.2% DMSO, dilution was done according to the following protocol: (1) making 500× stock solution in DMSO from 5 mM by 4-fold dilution, total 8 doses were included; (2) making 2× solution in cell culture medium by transferring 0.5 ul 500× stock solution into 125 μl medium; (3) adding 50 μl of 2× solution to cells for incubation of 72 h.
25 μl of the CellTiter-Glo®Reagent [(Promega) -Cat No. G7572] was added to each well in the 96-well plate. The contents were mixed for 2 minutes on an orbital shaker to induce cell lysis. The plate was then allowed to incubate at room temperature for 10 minutes to stabilize luminescent signal. Luminescence was recorded on BMG PheraStar with luminescence protocol.
The IC50 value of a compound can be obtained by fitting the following equation
(§2) Wherein, X and Y are known values, and IC50, Hillslope, Top and Bottom are the parameters obtained by fitting with software. Y is the inhibition percentage (calculated from the equation), X is the concentration of the compound; IC50 is the concentration of the compound when the 50% inhibition is reached. The smaller the IC50 value is, the stronger the inhibitory ability of the compound is. Vice versa, the higher the IC50 value is, the weaker the ability the inhibitory ability of the compound is; Hillslope represents the slope of the fitted curve, generally around 1 *; Bottom represents the minimum value of the curve obtained by data fitting, which is generally 0%±20%; Top represents the maximum value of the curve obtained by data fitting, which is generally 100%±20%. The experimental data were fitted by calculating and analyzing with Dotmatics data analysis software.

BTK = biological target: T1, BTK (Homo sapiens, UniProt Q06187); assay: BTK degradation in TMD-8 cells (HTRF assay); format: cell-based; settings: 6 h treatment, IC50 (DC50) of BTK degradation
T1 construct: High control=Cell group with added DMSO and without compound, indicating microplate readings without BTK degradation; endogenous in cells; host or cells: TMD-8
Procedure: as §1, with “TMD-8 cells” for “HEK-293 cells”, “from 1” for “from 5”, “by 6-fold” for “by 4-fold”, “0.5 μl” for “0.5 ul”, “adding 15” for “adding 50”, “of 6” for “of 72”
After 6 h treatment, 10 μl 4× lysis buffer was added to each well; the plate was sealed and incubated for 30 min at room temperature on a plate shaker; Once the cells was lysed, 16 μL of cell lysate were transferred to a PE 384-well HTRF detection plate; 4 μL of pre-mixed HTRF antibodies were added to each well; the plate was covered with a plate sealer, and then spinned at 1000 rpm for 1 min, then incubated overnight at room temperature; the results were read on BMG PheraStar with HTRF protocol (337 nm-665 nm-620 nm).
The IC50 (DC50) value of a compound can be obtained by fitting the following equation
as §2, with “wherein,” for “Wherein,”

T1 sequence (Q06187 whole entry): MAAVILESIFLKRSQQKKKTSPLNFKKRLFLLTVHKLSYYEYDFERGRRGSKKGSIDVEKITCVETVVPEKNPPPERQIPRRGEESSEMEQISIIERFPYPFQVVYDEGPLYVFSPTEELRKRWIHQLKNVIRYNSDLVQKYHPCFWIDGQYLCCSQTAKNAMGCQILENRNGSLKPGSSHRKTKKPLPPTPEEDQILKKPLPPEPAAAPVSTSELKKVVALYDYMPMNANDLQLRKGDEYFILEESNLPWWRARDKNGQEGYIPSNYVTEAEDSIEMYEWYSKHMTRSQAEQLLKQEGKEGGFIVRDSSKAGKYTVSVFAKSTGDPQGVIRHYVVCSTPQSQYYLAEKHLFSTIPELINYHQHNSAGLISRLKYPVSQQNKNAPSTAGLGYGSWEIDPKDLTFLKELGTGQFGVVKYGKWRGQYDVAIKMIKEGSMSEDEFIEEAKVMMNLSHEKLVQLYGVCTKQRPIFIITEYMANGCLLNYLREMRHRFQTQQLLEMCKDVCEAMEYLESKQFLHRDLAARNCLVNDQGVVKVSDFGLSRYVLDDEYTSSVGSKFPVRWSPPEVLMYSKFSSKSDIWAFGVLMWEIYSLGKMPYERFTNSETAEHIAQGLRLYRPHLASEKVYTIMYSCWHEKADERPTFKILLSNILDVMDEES

Row | DC50 (BTK) [nM] | Structure (SMILES) | IC50 (HEK-293 cells) [nM]
1 | 0.495 | Cc1cc(-c2ncnc3[nH]c4cc([C@H]5CCN(CC6CCN(c7ccc(N8CCC(=O)NC8=O)cc7)CC6)C5)ccc4c23)ccc1[C@@H](C)NC(=O)c1nc(C(C)(C)C)no1 [Example 14, 3-(tert-butyl)-N—((R)-1-(4-(7-((R)-1-((1-(4-(2,4-dioxotetrahydropyrimidin-1(2H)-yl)phenyl)piperidin-4-yl)methyl)pyrrolidin-3-yl)-9H-pyrimido[4,5-b]indol-4-yl)-2-methylphenyl)ethyl)-1,2,4-oxadiazole-5-carboxamide] | 3340
2 | 0.616 | Cc1cc(-c2ncnc3[nH]c4cc(N5CCN(C6CC(c7ccc(C8CCC(=O)NC8=O)cc7)C6)CC5)ccc4c23)ccc1[C@@H](C)NC(=O)c1nc(C(C)(C)C)no1 (stereo partly drawn) [Example 15, 3-(tert-butyl)-N-((1R)-1-(4-(7-(4-(3-(4-(2,6-dioxopiperidin-3-yl)phenyl)cyclobutyl)piperazin-1-yl)-9H-pyrimido[4,5-b]indol-4-yl)-2-methylphenyl)ethyl)-1,2,4-oxadiazole-5-carboxamide] | > 10000
3 | 0.347 | Cc1cc(-c2ncnc3[nH]c4cc(N5CCN(CCc6ccc(C7CCC(=O)NC7=O)c(C)n6)CC5)ccc4c23)ccc1[C@@H](C)NC(=O)c1nc(C(C)(C)C)no1 (stereo partly drawn) [Example 16, 3-(tert-butyl)-N-((1R)-1-(4-(7-(4-(2-(5-(2,6-dioxopiperidin-3-yl)-6-methylpyridin-2-yl)ethyl)piperazin-1-yl)-9H-pyrimido[4,5-b]indol-4-yl)-2-methylphenyl)ethyl)-1,2,4-oxadiazole-5-carboxamide] | > 10000
4 | 0.341 | Cc1cc(-c2ncnc3[nH]c4cc(N5CCN(CCc6ccc(N7CCC(=O)NC7=O)c(C)c6)CC5)ccc4c23)ccc1[C@@H](C)NC(=O)c1nc(C(C)(C)C)no1 [Example 17, (R)-3-(tert-butyl)-N-(1-(4-(7-(4-(4-(2,4-dioxotetrahydropyrimidin-1(2H)-yl)-3-methylphenethyl)piperazin-1-yl)-9H-pyrimido[4,5-b]indol-4-yl)-2-methylphenyl)ethyl)-1,2,4-oxadiazole-5-carboxamide] | > 10000
5 | 0.607 | Cc1cc(CCN2CCN(c3ccc4c(c3)[nH]c3ncnc(-c5ccc([C@@H](C)NC(=O)c6nc(C(C)(C)C)no6)c(C)c5)c34)CC2)ccc1C1CCC(=O)NC1=O (stereo partly drawn) [Example 18, 3-(tert-butyl)-N-((1R)-1-(4-(7-(4-(4-(2,6-dioxopiperidin-3-yl)-3-methylphenethyl)piperazin-1-yl)-9H-pyrimido[4,5-b]indol-4-yl)-2-methylphenyl)ethyl)-1,2,4-oxadiazole-5-carboxamide] | > 10000
6 | 0.564 | Cc1cc(-c2ncnc3[nH]c4cc(N5CCN(CCc6ccc(N7CCC(=O)NC7=O)cn6)CC5)ccc4c23)ccc1[C@@H](C)NC(=O)c1nc(C(C)(C)C)no1 [Example 19, (R)-3-(tert-butyl)-N-(1-(4-(7-(4-(2-(5-(2,4-dioxotetrahydropyrimidin-1(2H)-yl)pyridin-2-yl)ethyl)piperazin-1-yl)-9H-pyrimido[4,5-b]indol-4-yl)-2-methylphenyl)ethyl)-1,2,4-oxadiazole-5-carboxamide] | 5650
7 | 1.3 | Cc1cc(-c2ncnc3[nH]c4cc(C5CCN(C6CC(c7ccc([C@H]8CCC(=O)NC8=O)cc7)C6)C5)ccc4c23)ccc1[C@@H](C)NC(=O)c1nc(C(C)(C)C)no1 (stereo partly drawn) [Example 20, 3-(tert-butyl)-N-((1R)-1-(4-(7-(1-(3-(4-((R)-2,6-dioxopiperidin-3-yl)phenyl)cyclobutyl)pyrrolidin-3-yl)-9H-pyrimido[4,5-b]indol-4-yl)-2-methylphenyl)ethyl)-1,2,4-oxadiazole-5-carboxamide] | 3520
8 | 0.609 | Cc1cc(-c2ncnc3[nH]c4cc(C5CCN(C6CC(c7ccc([C@@H]8CCC(=O)NC8=O)cc7)C6)C5)ccc4c23)ccc1[C@@H](C)NC(=O)c1nc(C(C)(C)C)no1 (stereo partly drawn) [Example 21, 3-(tert-butyl)-N-((1R)-1-(4-(7-(1-(3-(4-((S)-2,6-dioxopiperidin-3-yl)phenyl)cyclobutyl)pyrrolidin-3-yl)-9H-pyrimido[4,5-b]indol-4-yl)-2-methylphenyl)ethyl)-1,2,4-oxadiazole-5-carboxamide] | 3600
9 | 0.211 | Cc1cc(-c2ncnc3[nH]c4cc(N5CCN(CC6CCN(c7ccc(N8CCC(=O)NC8=O)c(C)c7)CC6)CC5)ccc4c23)ccc1[C@@H](C)NC(=O)c1noc(C(C)(C)C)n1 [Example 22, (R)-5-(tert-butyl)-N-(1-(4-(7-(4-((1-(4-(2,4-dioxotetrahydropyrimidin-1(2H)-yl)-3-methylphenyl)piperidin-4-yl)methyl)piperazin-1-yl)-9H-pyrimido[4,5-b]indol-4-yl)-2-methylphenyl)ethyl)-1,2,4-oxadiazole-3-carboxamide] | > 10000
10 | 0.608 | Cc1cc(-c2ncnc3[nH]c4cc(N5CCN(CC6CCN(c7ccc(N8CCC(=O)NC8=O)cc7)CC6)CC5)ccc4c23)c(F)cc1[C@@H](C)NC(=O)c1nc(C(C)(C)C)no1 [Example 23, (R)-3-(tert-butyl)-N-(1-(4-(7-(4-((1-(4-(2,4-dioxotetrahydropyrimidin-1(2H)-yl)phenyl)piperidin-4-yl)methyl)piperazin-1-yl)-9H-pyrimido[4,5-b]indol-4-yl)-5-fluoro-2-methylphenyl)ethyl)-1,2,4-oxadiazole-5-carboxamide] | 2900
11 | 0.47 | Cc1cc(-c2ncnc3[nH]c4cc(N5CCN(CC6CCN(c7ccc(N8CCC(=O)NC8=O)c(C)c7)CC6)CC5)ccc4c23)c(F)cc1[C@@H](C)NC(=O)c1noc(C(C)(C)C)n1 [Example 24, (R)-5-(tert-butyl)-N-(1-(4-(7-(4-((1-(4-(2,4-dioxotetrahydropyrimidin-1(2H)-yl)-3-methylphenyl)piperidin-4-yl)methyl)piperazin-1-yl)-9H-pyrimido[4,5-b]indol-4-yl)-5-fluoro-2-methylphenyl)ethyl)-1,2,4-oxadiazole-3-carboxamide] | > 10000
12 | 0.872 | Cc1cc(-c2ncnc3[nH]c4cc(N5CCN(C6CC(c7ccc([C@@H]8CCC(=O)NC8=O)cc7)C6)CC5)ccc4c23)c(F)cc1[C@@H](C)NC(=O)c1nc(C(C)(C)C)no1 (stereo partly drawn) [Example 25, 3-(tert-butyl)-N—((R)-1-(4-(7-(4-(3-(4-((S)-2,6-dioxopiperidin-3-yl)phenyl)cyclobutyl)piperazin-1-yl)-9H-pyrimido[4,5-b]indol-4-yl)-5-fluoro-2-methylphenyl)ethyl)-1,2,4-oxadiazole-5-carboxamide] | > 10000
13 | 2.2 | Cc1cc(-c2ncnc3[nH]c4cc(N5CCN(C6CC(c7ccc([C@H]8CCC(=O)NC8=O)cc7)C6)CC5)ccc4c23)c(F)cc1[C@@H](C)NC(=O)c1nc(C(C)(C)C)no1 (stereo partly drawn) [Example 26, 3-(tert-butyl)-N—((R)-1-(4-(7-(4-(3-(4-((R)-2,6-dioxopiperidin-3-yl)phenyl)cyclobutyl)piperazin-1-yl)-9H-pyrimido[4,5-b]indol-4-yl)-5-fluoro-2-methylphenyl)ethyl)-1,2,4-oxadiazole-5-carboxamide] | > 10000
14 | 0.299 | Cc1c([C@@H](C)NC(=O)c2noc(C(C)(C)C)n2)ccc(-c2ncnc3[nH]c4cc(N5CCN(CC6CCN(c7ccc(N8CCC(=O)NC8=O)cc7)CC6)CC5)ccc4c23)c1F [Example 27, (R)-5-(tert-butyl)-N-(1-(4-(7-(4-((1-(4-(2,4-dioxotetrahydropyrimidin-1(2H)-yl)phenyl)piperidin-4-yl)methyl)piperazin-1-yl)-9H-pyrimido[4,5-b]indol-4-yl)-3-fluoro-2-methylphenyl)ethyl)-1,2,4-oxadiazole-3-carboxamide] | > 10000

From US20240366770A1, “DEGRADATION OF BRUTON'S TYROSINE KINASE (BTK) BY CONJUGATION OF BTK INHIBITORS WITH E3 LIGASE LIGAND AND METHODS OF USE” (BeiGene Switzerland GmbH, priority 2021, published 2024)
